# Patent publication US20250188057A1, “NON-AROMATIC CYCLIC-PYRIMIDINE ANALOGS AS GLUCOSYLCERAMIDE SYNTHASE INHIBITORS” (Merck Sharp & Dohme LLC, priority 2022, published 2025)
# Target: glucosylceramide synthase (GCS) (Homo sapiens (Human), UniProt Q16739)
# Assay: UDP-Glo glucosylceramide synthase biochemical assay
# Details: endogenous GCS in Golgi preparations isolated from human A375 malignant melanoma skin cells; UDP detection by luminescence
# Source text: A UDP-Glo™ glucosylceramide synthase biochemical assay was utilized to evaluate the effect of test compounds on the activity of endogenous levels of GCS enzyme contained within Golgi preparations isolated from human A375 malignant melanoma skin cells. The UDP-Glo™ glucosylceramide synthase assay uses UDP-Glucose as a nucleotide-glycosyl donor and ceramide as substrate acceptor molecules. In the reaction, glucosylceramide synthase (GCS) transfers glucose from UDP-Glucose to ceramide. Glucosylceramide and UDP are released as products.
# Using Promega's UDP-Glo™ Glycosyltransferase assay kit (Promega Corporation, Madison, WI, USA (Promega)), GCS activity was indirectly measured by detecting the amount of UDP produced. An aliquot of GCS enzyme (1.5 μg crude golgi preparation, total protein) and titrated test compound were aliquoted to each well and incubated for 30 minutes at room temperature. […] An equivalent volume of substrate mixture was then added to each well. Following a 20 h incubation at room temperature to allow for GCS turnover of substrate, an equal volume of UDP detection reagent (Promega) was added to each well and incubated for an additional 75 minutes at room temperature to simultaneously convert the accumulated UDP product into ATP and generate light in a luciferase reaction. The generated light was detected using a luminometer. […] luminescence values (RLUs) were normalized to mean “min” and “max” effects, as determined on each plate. “Min” was defined as the mean of the values of the wells treated with vehicle (DMSO) and which represent 0% inhibition; “max” was defined as the mean of the values of the wells treated with a reference inhibitor and which represent the 100% effect. Values for % Emax and EC50 were determined by best-fitting the normalized data to a curve in Activity Base along a four-parameter logistic nonlinear regression (4PL) model (based on the Levenberg-Marquardt algorithm and defined by the equation below): […]
# where: n is 4PMin (bottom of the curve); m is 4PMax (top of the curve); i is IP (inflection point of curve); and p is slope. See Levenberg, K., “A Method for the Solution of Certain Problems in Least Squares”, Quart. Appl. Math. 2, (1944), pp 164-168 and Marquardt, D., “An Algorithm for Least Squares Estimation on Nonlinear Parameters”, SIAM J. Appl. Math 11, (1963) pp 431-441.
# Chain of glucosylceramide synthase (GCS) (Q16739 whole entry): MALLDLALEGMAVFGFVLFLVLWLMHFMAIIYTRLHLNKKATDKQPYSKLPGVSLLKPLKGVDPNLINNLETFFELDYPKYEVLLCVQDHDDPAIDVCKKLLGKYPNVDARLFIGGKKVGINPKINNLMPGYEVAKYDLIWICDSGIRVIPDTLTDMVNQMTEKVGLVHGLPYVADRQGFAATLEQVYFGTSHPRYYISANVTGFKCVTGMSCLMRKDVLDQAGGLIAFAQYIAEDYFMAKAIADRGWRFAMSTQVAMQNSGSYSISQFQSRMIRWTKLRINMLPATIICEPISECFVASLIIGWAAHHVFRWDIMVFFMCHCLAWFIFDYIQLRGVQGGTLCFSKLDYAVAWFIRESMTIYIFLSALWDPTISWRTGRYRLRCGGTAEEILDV
row,IC50 [nM],Structure (SMILES)
1,61,"N#Cc1cnc(C2CC2)nc1OC[C@H]1CCN(c2ncc(C(F)(F)F)cn2)C1 [Compound 42, (S)-2-cyclopropyl-4-((1-(5-(trifluoromethyl)pyrimidin-2-yl)pyrrolidin-3-yl)methoxy)pyrimidine-5-carbonitrile]"
2,3510,"N#Cc1cnc(C2CC2)nc1OC[C@@H]1CCN(c2cc(F)ncc2Cl)C1 [Compound 37, (R)-4-((1-(5-chloro-2-fluoropyridin-4-yl)pyrrolidin-3-yl)methoxy)-2 cyclopropylpyrimidine-5-carbonitrile]"
3,4.3,"N#Cc1cnc(C2CC2)nc1OC[C@H]1CCN(c2ccc(-n3cccn3)cc2)C1 [Compound 7, (S)-4-((1-(4-(1H-pyrazol-1-yl)phenyl)pyrrolidin-3-yl)methoxy)-2-cyclopropylpyrimidine-5-carbonitrile]"
4,354,"N#Cc1cnc(C2CC2)nc1OC[C@H]1CCN(c2cccc(-n3nccn3)c2)C1 [Compound 20, (S)-4-((1-(3-(2H-1,2,3-triazol-2-yl)phenyl)pyrrolidin-3-yl)methoxy)-2-cyclopropylpyrimidine-5-carbonitrile]"
5,816,"Cc1nccc(-c2cccc(N3CC[C@H](COc4nc(C5CC5)ncc4C#N)C3)c2)n1 [Compound 15, (S)-2-cyclopropyl-4-((1-(3-(2-methylpyrimidin-4-yl)phenyl)pyrrolidin-3-yl)methoxy)pyrimidine-5-carbonitrile]"
6,81,"CC(Oc1nc(C2CC2)ncc1C#N)[C@H]1CCN(c2ncc(C(F)(F)F)cn2)C1 (stereo partly drawn) [Compound 50, 2-cyclopropyl-4-(1-((S)-1-(5-(trifluoromethyl)pyrimidin-2-yl)pyrrolidin-3-yl)ethoxy)pyrimidine-5-carbonitrile]"
7,1020,"Cc1cnc(N2CC[C@H](COc3nc(C4CC4)ncc3C#N)C2)c(C)c1 [Compound 17, (S)-2-cyclopropyl-4-((1-(3,5-dimethylpyridin-2-yl)pyrrolidin-3-yl)methoxy)pyrimidine-5-carbonitrile]"
8,377,"N#Cc1cnc(C2CC2)nc1OC[C@H]1CCN(c2ccc(C3CC3)nc2)C1 [Compound 24, (S)-2-cyclopropyl-4-((1-(6-cyclopropylpyridin-3-yl)pyrrolidin-3-yl)methoxy)pyrimidine-5-carbonitrile]"
9,148,"CC1CN(c2ncc(C(F)(F)F)cn2)CC1COc1nc(C2CC2)ncc1C#N (stereo not drawn) [Compound 53, 2-cyclopropyl-4-((4-methyl-1-(5-(trifluoromethyl)pyrimidin-2-yl)pyrrolidin-3-yl)methoxy)pyrimidine-5-carbonitrile]"
10,141,N#Cc1cnc(C2CC2)nc1OC[C@H]1CCN(c2sccc2C#N)C1 [Compound 14]
11,4190,"N#Cc1cnc(C2CC2)nc1OC[C@H]1CCN(c2cc(C(F)(F)F)ccn2)C1 [Compound 46, (S)-2-cyclopropyl-4-((1-(4-(trifluoromethyl)pyridin-2-yl)pyrrolidin-3-yl)methoxy)pyrimdiine-5-carbonitrile]"
12,983,"N#Cc1cnc(C2CC2)nc1OC[C@@H]1C[C@H]1c1ccc(F)cn1 [Compound 62, 2-cyclopropyl-4-(((1R,2R)-2-(5-fluoropyridin-2-yl)cyclopropyl)methoxy)pyrimidine-5-carbonitrile]"

# Second part, the compound before the results:
row,Structure (SMILES),IC50 [nM]
1,"N#Cc1cnc(C2CC2)nc1N1Cc2cccn3c(C(=O)NCC4CC4)cc(c23)C1 [Compound 65, 2-(5-cyano-2-cyclopropylpyrimidin-4-yl)-N-(cyclopropylmethyl)-2,3-dihydro-1H-pyrrrolo[3,2,1-ij][1,6]naphthyridine-5-carboxamide]",119
2,"CN(C[C@H]1CCN(c2ccc(-n3cccn3)nc2)C1)c1nc(C2CC2)ncc1C#N [Compound 49, (S)-4-(((1-(6-(1H-pyrazol-1-yl)pyridin-3-yl)pyrrolidin-3-yl)methyl)(methyl)amino)-2-cyclopropylpyrimidine-5-carbonitrile]",1870
3,"OCc1c(Cl)nc(C2CC2)nc1N1CCc2nc(C3CC3)sc2C1 [Compound 114, (4-chloro-2-cyclopropyl-6-(2-cyclopropyl-6,7-dihydrothiazolo[5,4-c]pyridin-5(4H)-yl)pyrimidin-5-yl)methanol]",3330
4,"N#Cc1cnc(C2CC2)nc1OC1CCc2ccc(OC(F)(F)F)cc21 (stereo not drawn) [Compound 97, 2-cyclopropyl-4-((6-(trifluoromethoxy)-2,3-dihydro-1H-inden-1-yl)oxy)pyrimidine-5-carbonitrile]",18
5,"N#Cc1cnc(C2CC2)nc1N1CCN(Cc2nc(-c3ccc(Cl)cc3)no2)CC1 [Compound 70, 4-(4-((3-(4-chlorophenyl)-1,2,4-oxadiazol-5-yl)methyl)piperazin-1-yl)-2-cyclopropylpyrimidine-5-carbonitrile]",877
6,"N#Cc1cnc(C2CC2)nc1N1CCN(Cc2ccccc2)C[C@@H]1COCc1ccccc1 [Compound 79, (R)-4-(4-bnezyl-2-((benzyloxy)methyl)piperazin-1-yl)-2-cyclopropylpyrimidine-5-carbonitrile]",3260
7,"COC(=O)c1cc(N2CC(c3nc4ccccc4n3C)C2)nc(C)n1 [Compound 121, methyl 2-methyl-6-(3-(1-methyl-1H-benzo[d]imidazol-2-yl)azetidin-1-yl)pyrimidine-4-carboxylate]",2820
8,"N#Cc1cnc(C2CC2)nc1OCC1CCCN1Cc1ccc(F)cc1 (stereo not drawn) [Compound 104, 2-cyclopropyl-4-((1-(4-fluorobenzyl)pyrrolidin-2-yl)methoxy)pyrimidine-5-carbonitrile]",1870
9,"OCc1c(Cl)nc(C2CC2)nc1N1CCC[C@@H]1c1ncc(-c2ccccc2)s1 [Compound 113, (R)-(4-chloro-2-cyclopropyl-6-(2-(5-phenylthiazol-2-yl)pyrrolidin-1-yl)pyrimidin-5-yl)methanol]",750
10,"Cc1nc(N2CC(c3nc4ccccc4n3C)C2)cc(N2CC3(CCCC3)CC2=O)n1 [Compound 120, 2-(2-methyl-6-(3-(1-methyl-1H-benzo[d]imidazol-2-yl)azetidin-1-yl)pyrimidin-4-yl)-2-azaspiro[4.4]nonan-3-one]",4130
11,"Cc1nc(N2CC(c3nc4ccccc4n3C)C2)cc(N2CC(CC(C)C)CC2=O)n1 (stereo not drawn) [Compound 117, 4-isobutyl-1-(2-methyl-6-(3-(1-methyl-1H-benzo[d]imidazol-2-yl)azetidin-1-yl)pyrimidin-4-yl)pyrrolidin-2-one]",1140
12,"Cc1nc2c(s1)CCCC2Nc1nc(C2CC2)nc(Cl)c1C(F)F (stereo not drawn) [Compound 123, N-(6-chloro-2-cyclopropyl-5-(difluoromethyl)pyrimidin-4-yl)-2-methyl-4,5,6,7-tetrahydrobenzo[d]thiazol-4-amine]",841
13,"N#Cc1cnc(C2CC2)nc1N1CCC(O)(c2cccc(C(F)(F)F)c2)CC1 [Compound 73, 2-cyclopropyl-4-(4-hydroxy-4-(3-(trifluoromethyl)phenyl)piperidin-1-yl)pyrimidine-5-carbonitrile]",1110
14,"N#Cc1cnc(C2CC2)nc1N(CC1CCC1)CC1CCCO1 (stereo not drawn) [Compound 90, 4-((cyclobutylmethyl)((tetrahydrofuran-2-yl)methyl)amino)-2-cyclopropylpyrimidine-5-carbonitrile]",1620
15,"N#Cc1cnc(C2CC2)nc1NC1CCCc2sc(C3CCC3)nc21 (stereo not drawn) [Compound 96, 4-((2-cyclobutyl-4,5,67-tetrahydrobenzo[d]thiazol-4-yl)amino)-2-cyclopropylpyrimidine-5-carbonitrile]",46
